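Following 48 hours of exposure in 96-well plates, responses at five concentrations were used to interpolate endpoints linearly. GI50 is the concentration that inhibits growth by half. TGI denotes the concentration required for complete inhibition of growth.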

Our source for the GI50 and TGI values is PubChem BioAssay (NCI).

Test systems include NCI-H23 lung; HCT-15 colon; UO-31 renal; IGROV1 ovarian; UACC-62 melanoma; OVCAR-5 ovarian; SK-MEL-28 melanoma; SNB-75 CNS; RXF 393 renal; UACC-257 melanoma.
Assay in all cases: DTP human tumour cell line panel, 48 h

For orientation: GI50 means the concentration that inhibits growth by half. By TGI is commonly meant the concentration at which net growth stops. A low value points to greater sensitivity of the cells. Take `Clc1ccc(C2CC(c3cccc(Nc4ccncc4)c3)=NN2c2ccc(Cl)cc2)cc1` (configuration not stated): the GI50 in the experiment on NCI-H23 lung was 1.83 µM; in the experiment with HCT-15 colon, 1.55 µM; in the experiment on UO-31 renal, 1.42 µM; with IGROV1 ovarian it was 1.65 µM; in the experiment with UACC-62 melanoma, 1.66 µM; with OVCAR-5 ovarian, 1.54 µM. Further, the GI50 was 1.67 µM in the experiment on SK-MEL-28 melanoma, 1.21 µM in the experiment with SNB-75 CNS and 1.54 µM in the experiment with RXF 393 renal. The concentration for total growth inhibition (TGI) with NCI-H23 lung amounted to 3.49 µM; with HCT-15 colon, 2.95 µM; in the experiment with UO-31 renal, 2.74 µM; in the experiment with IGROV1 ovarian, 3.18 µM; with UACC-62 melanoma, 3.04 µM; in the experiment with OVCAR-5 ovarian it was 2.88 µM. Moreover, the figures for the TGI with SK-MEL-28 melanoma, in the experiment on SNB-75 CNS and in the experiment with RXF 393 renal were 3.09 µM, 2.56 µM and 2.94 µM, respectively.
As for `COc1ccc(C(=O)O[C@H]2CC[C@@]3(C)[C@@H]4CC[C@H]5[C@]6(O)C[C@H](O)[C@@]7(O)[C@@H](CN8C[C@@H](C)CC[C@H]8[C@@]7(C)O)[C@]6(O)C[C@@]53OC24O)cc1OC`, the total growth inhibition concentration (TGI) with NCI-H23 lung, in the experiment with HCT-15 colon, in the experiment on UO-31 renal, with IGROV1 ovarian, in the experiment on UACC-62 melanoma and in the experiment on OVCAR-5 ovarian was over 100 µM each time. Also, the TGI with SK-MEL-28 melanoma, in the experiment on SNB-75 CNS, in the experiment with UACC-257 melanoma and with RXF 393 renal was over 100 µM each time.
In the case of `CC[C@@]1(OC(=O)CN(C)C)C(=O)OCc2c1cc1n(c2=O)Cc2cc3c(N)cccc3nc2-1`, the concentration for 50% growth inhibition (GI50) is 0.0277 µM in the experiment with NCI-H23 lung; 0.317 µM in the experiment with HCT-15 colon; 0.0166 µM with UO-31 renal; 0.0609 µM in the experiment with IGROV1 ovarian; 0.0164 µM in the experiment with UACC-62 melanoma; 0.317 µM in the experiment on OVCAR-5 ovarian. The 50% growth inhibitory concentration (GI50) with SK-MEL-28 melanoma is 0.297 µM; with SNB-75 CNS, 0.0428 µM; with UACC-257 melanoma, 0.0933 µM; in the experiment on RXF 393 renal it was 0.144 µM. Besides, the total growth inhibition concentration (TGI) is 0.684 µM in the experiment with NCI-H23 lung; over 100 µM in the experiment with HCT-15 colon; 0.057 µM with UO-31 renal; 0.421 µM in the experiment with IGROV1 ovarian; 0.159 µM in the experiment with UACC-62 melanoma; over 100 µM in the experiment on OVCAR-5 ovarian. For the same molecule, the total growth inhibition concentration (TGI) in the experiment with SK-MEL-28 melanoma was found to be 4.28 µM; in the experiment with SNB-75 CNS, 0.283 µM; with UACC-257 melanoma, 0.981 µM; in the experiment with RXF 393 renal, 0.576 µM.
With `Clc1cc2ccccc2c2ccccc12`, the concentration for total growth inhibition (TGI) in the experiment with NCI-H23 lung, with HCT-15 colon, in the experiment with UO-31 renal, in the experiment on IGROV1 ovarian, with UACC-62 melanoma and with OVCAR-5 ovarian was over 100 µM each time. For the same molecule, the TGI with SK-MEL-28 melanoma, with SNB-75 CNS, with UACC-257 melanoma and in the experiment with RXF 393 renal was over 100 µM throughout.
On to `NC1C=NNC1=O` (configuration not stated), for which the concentration for total growth inhibition (TGI) in the experiment on NCI-H23 lung, in the experiment on HCT-15 colon, with UO-31 renal, in the experiment on IGROV1 ovarian, with UACC-62 melanoma and in the experiment on OVCAR-5 ovarian was over 100 µM throughout. For the same molecule, the TGI with SK-MEL-28 melanoma, in the experiment with SNB-75 CNS, in the experiment on UACC-257 melanoma and with RXF 393 renal was over 100 µM in each case.
Regarding `CCC1C(C#N)=C(O)NC(O)=C1C#N`, the concentration for total growth inhibition (TGI) with NCI-H23 lung, in the experiment on HCT-15 colon, with UO-31 renal, in the experiment with IGROV1 ovarian, in the experiment with UACC-62 melanoma and in the experiment with OVCAR-5 ovarian was over 100 µM throughout. For the same molecule, the concentration for total growth inhibition (TGI) in the experiment on SK-MEL-28 melanoma, in the experiment on SNB-75 CNS, in the experiment with UACC-257 melanoma and in the experiment on RXF 393 renal was over 100 µM in each case.
For `O=C(O)C(O)(c1ccc(-c2ccccc2)cc1)c1ccc(-c2ccccc2)cc1`, the concentration for total growth inhibition (TGI) is 36.2 µM in the experiment with NCI-H23 lung; 41.5 µM with HCT-15 colon; over 100 µM in the experiment with UO-31 renal; 57.3 µM with IGROV1 ovarian; 36.7 µM in the experiment on UACC-62 melanoma; 77.8 µM in the experiment on OVCAR-5 ovarian. Further, the TGI in the experiment with SK-MEL-28 melanoma is over 100 µM; in the experiment on SNB-75 CNS it was 48.2 µM; in the experiment on UACC-257 melanoma it was over 100 µM; in the experiment with RXF 393 renal, 51.6 µM.
As for `C[C@]12Cc3cnc(-c4ccccc4)nc3C[C@@H]1CC[C@@H]1[C@@H]2CC[C@@]2(C)[C@H]1CC[C@]2(C)O`, the concentration for total growth inhibition (TGI) is 47.3 µM in the experiment on NCI-H23 lung; over 63.2 µM in the experiment with HCT-15 colon; 7.06 µM with UO-31 renal; 63.3 µM in the experiment with IGROV1 ovarian; 48.4 µM in the experiment on UACC-62 melanoma; 63.4 µM in the experiment with OVCAR-5 ovarian. Moreover, the TGI with SK-MEL-28 melanoma stood at 56.9 µM; in the experiment with SNB-75 CNS it was 21.6 µM; in the experiment on UACC-257 melanoma, 44.9 µM; in the experiment on RXF 393 renal it was 12.3 µM.
With `O=NN1C(c2ccccc2)C2CCCC(C2=O)C1c1ccccc1` (configuration not stated), the TGI is 48.3 µM with NCI-H23 lung; over 87.7 µM in the experiment with HCT-15 colon; over 76.2 µM with UO-31 renal; over 92.7 µM with IGROV1 ovarian; 59 µM in the experiment with UACC-62 melanoma; over 100 µM in the experiment with OVCAR-5 ovarian. For the same molecule, the TGI with SK-MEL-28 melanoma was found to be 44.3 µM; in the experiment with SNB-75 CNS, 61 µM; in the experiment on UACC-257 melanoma, 66.2 µM; with RXF 393 renal, 41.8 µM.
Regarding `COc1ccc(C(=O)NC2=C(Cl)C(=O)c3ccccc3C2=O)cc1`, the TGI with NCI-H23 lung was 6.05 µM; in the experiment on HCT-15 colon it was 11 µM; in the experiment on UO-31 renal it was 8.75 µM; with IGROV1 ovarian, 12.9 µM; in the experiment on UACC-62 melanoma, 2.63 µM; in the experiment with OVCAR-5 ovarian, 11.4 µM. Further, the TGI in the experiment with SK-MEL-28 melanoma came out at 17.9 µM; in the experiment with SNB-75 CNS it was 12.8 µM; with UACC-257 melanoma it was 4.5 µM; in the experiment with RXF 393 renal, 8.25 µM.
In the case of `O=C1CCCC/C1=C1/SC(=Nc2ccccc2)C(=Nc2ccccc2)N1c1ccccc1`, the TGI in the experiment with NCI-H23 lung, with HCT-15 colon, with UO-31 renal, in the experiment with IGROV1 ovarian, in the experiment with UACC-62 melanoma and in the experiment with OVCAR-5 ovarian was over 100 µM each time. Besides, the TGI in the experiment on SK-MEL-28 melanoma is over 100 µM; with SNB-75 CNS it was over 100 µM; with RXF 393 renal, 40 µM.
In the case of `COc1ccc(NC(=S)NNC(=O)c2nsc3ccccc23)cc1`, the TGI is over 100 µM with NCI-H23 lung; over 100 µM in the experiment on HCT-15 colon; 69.1 µM in the experiment with UO-31 renal; over 100 µM with IGROV1 ovarian; 71.6 µM with UACC-62 melanoma; over 100 µM in the experiment with OVCAR-5 ovarian. The concentration for total growth inhibition (TGI) with SK-MEL-28 melanoma is over 100 µM; in the experiment with SNB-75 CNS it was 66.8 µM; in the experiment with UACC-257 melanoma it was over 100 µM; in the experiment on RXF 393 renal it was 72.9 µM.
